# Experimental data taken from patent US11596622B2, “Mazindol treatment for heroin dependence and substance use disorder” (NLS Pharmaceutics AG, priority 2017, dated 2023).
# Assays:
# Dopamine transporter(h) = target: T1, Dopamine transporter(h) (Homo sapiens, UniProt Q01959); assay: Radioligand binding, dopamine transporter (Eurofins CEREP); conditions: 1.0 × 10^−05 M; antagonist radioligand
# T1 construct: Eurofins CEREP
# Description: (§1) Table A discloses mazindol and Met tested at […] and the compound binding calculated as a percent inhibition of the binding of a radioactively labeled ligand specific for each target (Eurofins CEREP, France).
# (§2) An inhibition or stimulation of more than 50% is considered a significant effect of the test compounds. Fifty percent is a common cut-off for further investigation (i.e. determination of IC50 or EC50 values from concentration-response curves).
# (§3) The results are expressed as a percent of control specific binding obtained in the presence of the test compounds:
# (§4) [formula] and as a percent inhibition of control specific binding obtained in the presence of the test compounds: […]
# M1(h) = target: T2, M1(h) (Homo sapiens, UniProt P11229); assay: Radioligand binding, M1 (Eurofins CEREP); conditions: 1.0 × 10^−05 M; antagonist radioligand
# T2 construct: Eurofins CEREP
# T2 sequence (P11229 1-460): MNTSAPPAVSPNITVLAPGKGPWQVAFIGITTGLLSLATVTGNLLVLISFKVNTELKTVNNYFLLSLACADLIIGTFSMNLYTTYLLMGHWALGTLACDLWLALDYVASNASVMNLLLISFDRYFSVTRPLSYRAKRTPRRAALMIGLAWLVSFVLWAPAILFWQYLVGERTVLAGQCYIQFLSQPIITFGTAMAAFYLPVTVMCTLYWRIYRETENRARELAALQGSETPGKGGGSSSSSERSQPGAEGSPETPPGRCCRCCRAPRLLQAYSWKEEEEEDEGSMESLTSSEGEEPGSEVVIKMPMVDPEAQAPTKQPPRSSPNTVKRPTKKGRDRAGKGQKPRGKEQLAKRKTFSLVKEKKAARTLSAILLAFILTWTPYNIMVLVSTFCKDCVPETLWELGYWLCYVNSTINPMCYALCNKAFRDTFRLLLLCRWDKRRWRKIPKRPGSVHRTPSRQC
# Description: as §1
# (§5) An inhibition or stimulation of more than 50% is considered a significant effect of the test compounds. Fifty percent is a common cut-off for further investigation (i.e. determination of IC50 or EC50 values from concentration-response curves). Tables B and C display the binding profiles for Mazindol and Met.
# as §3, §4
# μ (MOP) (h) = target: T3, μ (MOP) (h) (Homo sapiens, UniProt P35372); assay: Radioligand binding, μ opioid receptor (Eurofins CEREP)
# T3 construct: Eurofins CEREP
# T3 sequence (P35372 whole entry): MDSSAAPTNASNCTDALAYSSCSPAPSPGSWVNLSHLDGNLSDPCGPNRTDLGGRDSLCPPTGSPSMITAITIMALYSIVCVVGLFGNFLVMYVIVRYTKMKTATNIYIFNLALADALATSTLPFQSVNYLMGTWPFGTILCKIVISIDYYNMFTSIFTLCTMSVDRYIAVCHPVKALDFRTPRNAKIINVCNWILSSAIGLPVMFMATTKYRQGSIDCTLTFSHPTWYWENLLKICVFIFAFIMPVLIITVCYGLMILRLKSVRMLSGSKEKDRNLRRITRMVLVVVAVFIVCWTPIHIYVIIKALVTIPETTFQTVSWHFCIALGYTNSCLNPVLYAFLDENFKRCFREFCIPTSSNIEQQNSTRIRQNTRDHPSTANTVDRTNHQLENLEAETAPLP
# Description: as §1, §5, §3, §4
# 5-HT transporter(h) = target: T4, 5-HT transporter(h) (Homo sapiens, UniProt P31645); assay: Radioligand binding, 5-HT transporter (Eurofins CEREP); conditions: 1.0 × 10^−05 M; antagonist radioligand
# T4 construct: Eurofins CEREP
# T4 sequence (P31645 whole entry): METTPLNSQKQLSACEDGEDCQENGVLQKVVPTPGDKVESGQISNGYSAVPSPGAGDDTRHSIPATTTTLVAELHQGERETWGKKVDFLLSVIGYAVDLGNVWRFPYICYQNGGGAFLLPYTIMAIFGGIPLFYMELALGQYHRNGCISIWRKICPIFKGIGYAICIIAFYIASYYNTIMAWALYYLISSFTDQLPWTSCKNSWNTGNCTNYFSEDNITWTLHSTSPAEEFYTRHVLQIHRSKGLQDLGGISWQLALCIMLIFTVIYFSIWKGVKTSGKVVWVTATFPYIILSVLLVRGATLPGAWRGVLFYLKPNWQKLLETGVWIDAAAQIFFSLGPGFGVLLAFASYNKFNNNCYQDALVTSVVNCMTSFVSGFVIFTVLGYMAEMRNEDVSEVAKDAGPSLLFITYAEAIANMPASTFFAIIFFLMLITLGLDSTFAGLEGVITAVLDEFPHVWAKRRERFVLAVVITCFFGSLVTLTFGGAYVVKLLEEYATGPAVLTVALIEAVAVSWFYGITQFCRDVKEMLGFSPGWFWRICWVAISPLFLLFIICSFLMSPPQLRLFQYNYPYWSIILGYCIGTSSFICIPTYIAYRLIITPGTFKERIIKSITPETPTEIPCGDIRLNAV
# Description: as §1, §2, §3, §4
# H1(h) = target: T5, H1(h) (Homo sapiens, UniProt P35367); assay: Radioligand binding, H1 (Eurofins CEREP); conditions: 1.0 × 10^−05 M; antagonist radioligand
# T5 construct: Eurofins CEREP
# T5 sequence (P35367 whole entry): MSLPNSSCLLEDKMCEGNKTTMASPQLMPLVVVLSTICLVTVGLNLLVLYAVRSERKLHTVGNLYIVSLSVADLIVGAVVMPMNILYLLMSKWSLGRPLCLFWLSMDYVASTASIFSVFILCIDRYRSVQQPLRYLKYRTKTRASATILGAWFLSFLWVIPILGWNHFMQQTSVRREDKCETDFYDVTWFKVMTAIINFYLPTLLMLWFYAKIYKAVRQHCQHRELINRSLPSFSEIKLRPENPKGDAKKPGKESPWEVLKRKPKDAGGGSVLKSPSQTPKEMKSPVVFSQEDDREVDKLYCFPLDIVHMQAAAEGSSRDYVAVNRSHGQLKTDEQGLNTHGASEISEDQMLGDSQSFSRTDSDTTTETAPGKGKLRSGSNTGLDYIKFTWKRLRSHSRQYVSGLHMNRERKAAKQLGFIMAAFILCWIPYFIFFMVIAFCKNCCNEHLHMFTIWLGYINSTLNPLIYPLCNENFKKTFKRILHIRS
# Description: as §1, §5, §3, §4
# k (KOP) = target: T6, k (KOP) (Rattus norvegicus, UniProt P34975); assay: Radioligand binding, κ opioid receptor (Eurofins CEREP)
# T6 construct: Eurofins CEREP
# T6 sequence (P34975 whole entry): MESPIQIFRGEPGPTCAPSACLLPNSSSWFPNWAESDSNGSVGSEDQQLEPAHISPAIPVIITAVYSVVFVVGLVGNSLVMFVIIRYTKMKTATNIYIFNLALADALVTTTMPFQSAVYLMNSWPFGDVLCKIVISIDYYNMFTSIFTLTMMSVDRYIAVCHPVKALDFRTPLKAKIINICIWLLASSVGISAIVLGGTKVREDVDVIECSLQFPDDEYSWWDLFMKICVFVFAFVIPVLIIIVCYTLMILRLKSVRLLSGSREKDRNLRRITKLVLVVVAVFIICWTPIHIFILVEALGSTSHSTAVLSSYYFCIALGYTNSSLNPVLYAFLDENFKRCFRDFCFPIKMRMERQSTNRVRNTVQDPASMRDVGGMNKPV
# Description: as §1, §5, §3, §4
# [1] = target: T7, Norepinephrine transporter (h) (Homo sapiens, UniProt P23975); assay: Radioligand binding, norepinephrine transporter (Eurofins CEREP); conditions: 1.0 × 10^−05 M; antagonist radioligand
# T7 construct: Eurofins CEREP
# T7 sequence (P23975 whole entry): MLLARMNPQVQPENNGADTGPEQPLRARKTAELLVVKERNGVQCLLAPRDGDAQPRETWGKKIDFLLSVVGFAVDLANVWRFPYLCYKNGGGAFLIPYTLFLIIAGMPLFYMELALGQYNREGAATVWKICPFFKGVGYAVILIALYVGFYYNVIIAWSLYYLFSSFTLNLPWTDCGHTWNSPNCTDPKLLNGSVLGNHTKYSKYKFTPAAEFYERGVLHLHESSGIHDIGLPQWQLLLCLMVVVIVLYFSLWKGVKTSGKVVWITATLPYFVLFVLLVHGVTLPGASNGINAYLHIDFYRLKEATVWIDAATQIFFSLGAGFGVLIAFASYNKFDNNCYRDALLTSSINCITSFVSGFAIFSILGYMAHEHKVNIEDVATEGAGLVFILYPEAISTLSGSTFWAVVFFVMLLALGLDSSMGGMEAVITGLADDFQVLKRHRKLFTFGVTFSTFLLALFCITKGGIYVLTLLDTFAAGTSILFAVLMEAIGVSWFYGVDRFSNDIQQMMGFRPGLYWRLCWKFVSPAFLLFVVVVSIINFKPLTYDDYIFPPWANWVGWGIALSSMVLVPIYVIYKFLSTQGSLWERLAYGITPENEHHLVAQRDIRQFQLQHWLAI
# Description: as §1, §5, §3, §4
# 5-HT1A(h) = target: T8, 5-HT1A(h) (Homo sapiens, UniProt P08908); assay: Radioligand binding, 5-HT1A (Eurofins CEREP); conditions: 1.0 × 10^−05 M; agonist radioligand
# T8 construct: Eurofins CEREP
# T8 sequence (P08908 1-422): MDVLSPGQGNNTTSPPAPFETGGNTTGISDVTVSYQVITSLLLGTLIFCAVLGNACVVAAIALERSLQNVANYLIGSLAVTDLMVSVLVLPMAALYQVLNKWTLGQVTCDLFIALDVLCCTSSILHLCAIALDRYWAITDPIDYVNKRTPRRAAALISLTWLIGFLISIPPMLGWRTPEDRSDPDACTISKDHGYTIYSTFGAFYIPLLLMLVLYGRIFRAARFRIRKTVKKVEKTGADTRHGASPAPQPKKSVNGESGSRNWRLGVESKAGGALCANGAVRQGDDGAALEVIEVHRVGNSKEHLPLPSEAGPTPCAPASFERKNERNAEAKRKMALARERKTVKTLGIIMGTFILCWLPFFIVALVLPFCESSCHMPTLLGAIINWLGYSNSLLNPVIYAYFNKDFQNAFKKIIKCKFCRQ
# Description: as §1, §2, §3, §4
# [2] = 1.0 × 10^−05 M, agonist radioligand
# T1 sequence (Q01959 whole entry): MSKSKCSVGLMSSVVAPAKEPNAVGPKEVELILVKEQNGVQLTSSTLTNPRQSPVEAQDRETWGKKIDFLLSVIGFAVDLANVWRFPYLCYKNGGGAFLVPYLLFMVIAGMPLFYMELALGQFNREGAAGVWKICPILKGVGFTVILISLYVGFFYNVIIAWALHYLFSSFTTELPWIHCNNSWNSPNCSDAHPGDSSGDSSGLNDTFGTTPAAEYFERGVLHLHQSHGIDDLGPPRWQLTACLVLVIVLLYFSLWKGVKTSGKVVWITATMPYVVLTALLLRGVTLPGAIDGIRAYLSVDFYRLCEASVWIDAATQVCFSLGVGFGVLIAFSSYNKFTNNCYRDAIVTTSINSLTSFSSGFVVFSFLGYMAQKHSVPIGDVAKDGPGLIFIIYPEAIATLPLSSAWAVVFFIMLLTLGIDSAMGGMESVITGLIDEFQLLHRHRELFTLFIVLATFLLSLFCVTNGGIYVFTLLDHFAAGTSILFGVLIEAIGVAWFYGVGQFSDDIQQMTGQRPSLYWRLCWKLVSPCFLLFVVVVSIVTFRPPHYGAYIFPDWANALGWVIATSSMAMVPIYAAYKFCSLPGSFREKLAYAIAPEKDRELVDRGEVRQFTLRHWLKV
smiles,measurement,setting,value
"NCCN1C(=O)c2ccccc2C1(O)c1ccc(Cl)cc1 (stereo not shown) [Mazindol Metabolite, 2-(2-Aminoethyl)-3-(p-chlorophenyl)-3-hydroxyphthalimidine]",percent inhibition of the binding of a radioactively labeled ligand,Dopamine transporter(h),101%
same,percent inhibition of the binding of a radioactively labeled ligand,M1(h),50.4%
same,percent inhibition of the binding of a radioactively labeled ligand,μ (MOP) (h); [2],87.9%
same,affinity for μ-opioid receptors,μ (MOP) (h); compared with amphetamines,higher affinity
same,percent inhibition of the binding of a radioactively labeled ligand,5-HT transporter(h),98.5%
same,percent inhibition of the binding of a radioactively labeled ligand,H1(h),75.5%
same,affinity for κ-opioid receptors,k (KOP),modest affinity
same,percent inhibition of the binding of a radioactively labeled ligand,k (KOP); [2],53.3%
same,percent inhibition of the binding of a radioactively labeled ligand,[1],100.2%
same,percent inhibition of the binding of a radioactively labeled ligand,5-HT1A(h),86.3%
